Data from US20230293535A1, “ERBB/BTK INHIBITORS” (Dizal (Jiangsu) Pharmaceutical Co., Ltd., priority 2018, published 2023).
Structures can show the parent of a compound that is named as a salt. Where two headings read alike, the source gives them in different places.

How the values were obtained:
Assay type in all cases: cell-based
[1] = target: T1, human EGFR exon 20 H773_V774insNPH (Homo sapiens, UniProt P00533, INS773NPH); experiment: EGFR Exon20 NPH insertion cellular phosphorylation inhibition (MSD pEGFR Y1068/total EGFR); conditions: Ba/F3 EGFR NPH ins cells, 4 h compound, p-EGFR(Y1068)/total EGFR;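 also: IL3-independent Ba/F3 cells with constitutively phosphorylated EGFR, compound exposure at 37 °C under 5% CO2, electrochemiluminescent MSD measurement of the p-EGFR to total EGFR ratio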
T1 construct: host or cells: Ba/F3
T1 sequence (P00533 with tags, fused parts or gaps INS773NPH): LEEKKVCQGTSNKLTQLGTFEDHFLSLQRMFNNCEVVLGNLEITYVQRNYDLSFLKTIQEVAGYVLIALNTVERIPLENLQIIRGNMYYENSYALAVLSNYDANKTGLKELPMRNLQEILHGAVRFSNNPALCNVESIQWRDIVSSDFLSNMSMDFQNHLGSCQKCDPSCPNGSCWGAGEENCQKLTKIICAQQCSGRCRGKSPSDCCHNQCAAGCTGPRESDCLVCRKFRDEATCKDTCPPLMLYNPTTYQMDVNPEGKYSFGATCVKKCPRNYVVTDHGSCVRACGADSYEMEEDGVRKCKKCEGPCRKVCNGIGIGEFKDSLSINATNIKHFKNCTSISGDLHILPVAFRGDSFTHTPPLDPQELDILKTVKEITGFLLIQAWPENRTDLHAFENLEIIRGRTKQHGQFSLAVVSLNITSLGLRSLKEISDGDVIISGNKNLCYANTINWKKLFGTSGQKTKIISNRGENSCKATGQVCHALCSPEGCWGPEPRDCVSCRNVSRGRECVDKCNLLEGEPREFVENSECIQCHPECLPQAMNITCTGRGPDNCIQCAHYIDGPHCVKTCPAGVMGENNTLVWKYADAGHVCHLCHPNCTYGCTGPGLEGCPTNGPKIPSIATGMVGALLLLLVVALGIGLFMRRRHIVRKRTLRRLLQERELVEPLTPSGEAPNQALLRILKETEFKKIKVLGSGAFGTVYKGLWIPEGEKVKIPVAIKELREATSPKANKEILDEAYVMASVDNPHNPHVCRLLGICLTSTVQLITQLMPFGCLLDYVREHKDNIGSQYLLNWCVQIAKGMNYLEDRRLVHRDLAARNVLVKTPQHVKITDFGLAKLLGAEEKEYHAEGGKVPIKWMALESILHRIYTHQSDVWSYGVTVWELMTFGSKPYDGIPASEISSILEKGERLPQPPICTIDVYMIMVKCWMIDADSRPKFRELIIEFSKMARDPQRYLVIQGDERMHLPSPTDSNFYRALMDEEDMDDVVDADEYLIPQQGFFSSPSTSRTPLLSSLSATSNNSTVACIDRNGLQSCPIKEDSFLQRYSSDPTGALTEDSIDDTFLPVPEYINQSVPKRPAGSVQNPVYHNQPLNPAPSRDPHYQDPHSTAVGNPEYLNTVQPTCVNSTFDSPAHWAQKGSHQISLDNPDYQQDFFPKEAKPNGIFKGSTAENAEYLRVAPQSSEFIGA

[2] = target: T2, human EGFR exon 20 V769_D770insASV (Homo sapiens, UniProt P00533, INS769ASV); experiment: EGFR Exon20 ASV insertion cellular phosphorylation inhibition (MSD pEGFR Y1068/total EGFR); conditions: Ba/F3 EGFR ASV ins cells, 4 h compound, p-EGFR(Y1068)/total EGFR;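 also: electrochemiluminescent readout on an MSD SECTOR Imager, IL3-independent transduced cells in medium with 1% FBS, compound concentration series at 37 °C and 5% CO2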
T2 construct: expressed in transfected cells; host or cells: Ba/F3 (DSMZ ACC-300), lentiviral transduction, puromycin selection, IL3 depletion
T2 sequence (P00533 with tags, fused parts or gaps INS769ASV): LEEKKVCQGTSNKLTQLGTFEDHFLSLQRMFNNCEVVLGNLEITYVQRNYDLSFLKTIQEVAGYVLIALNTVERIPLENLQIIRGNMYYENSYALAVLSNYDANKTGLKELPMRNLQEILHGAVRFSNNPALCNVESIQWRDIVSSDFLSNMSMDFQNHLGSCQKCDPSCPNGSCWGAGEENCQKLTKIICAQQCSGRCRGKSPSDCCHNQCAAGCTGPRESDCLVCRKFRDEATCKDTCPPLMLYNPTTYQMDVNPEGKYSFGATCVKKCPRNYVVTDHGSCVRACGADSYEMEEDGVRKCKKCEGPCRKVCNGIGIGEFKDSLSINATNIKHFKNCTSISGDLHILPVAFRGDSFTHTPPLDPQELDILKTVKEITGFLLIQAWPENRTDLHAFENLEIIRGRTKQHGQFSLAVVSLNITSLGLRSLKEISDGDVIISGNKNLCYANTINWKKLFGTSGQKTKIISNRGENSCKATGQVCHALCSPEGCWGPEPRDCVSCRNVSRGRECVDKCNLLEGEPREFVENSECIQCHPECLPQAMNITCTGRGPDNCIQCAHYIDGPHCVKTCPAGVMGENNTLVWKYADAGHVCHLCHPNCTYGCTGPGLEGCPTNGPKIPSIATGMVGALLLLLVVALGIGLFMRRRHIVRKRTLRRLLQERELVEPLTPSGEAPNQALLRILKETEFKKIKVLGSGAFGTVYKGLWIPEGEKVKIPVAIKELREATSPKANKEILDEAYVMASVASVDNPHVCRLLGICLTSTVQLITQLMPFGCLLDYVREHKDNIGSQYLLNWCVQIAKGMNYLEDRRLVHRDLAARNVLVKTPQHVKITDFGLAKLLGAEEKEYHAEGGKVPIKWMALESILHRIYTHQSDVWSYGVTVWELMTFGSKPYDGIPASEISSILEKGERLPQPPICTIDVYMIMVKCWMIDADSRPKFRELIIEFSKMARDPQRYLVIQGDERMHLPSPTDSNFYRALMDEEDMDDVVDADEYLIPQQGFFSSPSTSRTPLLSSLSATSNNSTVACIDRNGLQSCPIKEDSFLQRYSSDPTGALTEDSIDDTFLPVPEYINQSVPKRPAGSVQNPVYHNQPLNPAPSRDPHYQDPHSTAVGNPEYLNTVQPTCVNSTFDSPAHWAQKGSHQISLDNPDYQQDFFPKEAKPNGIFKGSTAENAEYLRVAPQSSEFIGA

[3] = target: T3, EGFR L858R&T790M (Homo sapiens, UniProt P00533, L858R/T790M); experiment: EGFR L858R and T790M cellular phosphorylation inhibition in NCI-H1975 (MSD); conditions: NCI-H1975 cells, 4 h compound, p-EGFR(Y1068)/total EGFR; read-out: EGFR L858R and T790M mutation IC50;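 also: phosphorylated and total EGFR detected by electrochemiluminescence, cells exposed to compound in medium containing 1% FBS at 37 °C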
T3 construct: host or cells: NCI-H1975
T3 sequence (P00533 25-1210 T790M/L858R): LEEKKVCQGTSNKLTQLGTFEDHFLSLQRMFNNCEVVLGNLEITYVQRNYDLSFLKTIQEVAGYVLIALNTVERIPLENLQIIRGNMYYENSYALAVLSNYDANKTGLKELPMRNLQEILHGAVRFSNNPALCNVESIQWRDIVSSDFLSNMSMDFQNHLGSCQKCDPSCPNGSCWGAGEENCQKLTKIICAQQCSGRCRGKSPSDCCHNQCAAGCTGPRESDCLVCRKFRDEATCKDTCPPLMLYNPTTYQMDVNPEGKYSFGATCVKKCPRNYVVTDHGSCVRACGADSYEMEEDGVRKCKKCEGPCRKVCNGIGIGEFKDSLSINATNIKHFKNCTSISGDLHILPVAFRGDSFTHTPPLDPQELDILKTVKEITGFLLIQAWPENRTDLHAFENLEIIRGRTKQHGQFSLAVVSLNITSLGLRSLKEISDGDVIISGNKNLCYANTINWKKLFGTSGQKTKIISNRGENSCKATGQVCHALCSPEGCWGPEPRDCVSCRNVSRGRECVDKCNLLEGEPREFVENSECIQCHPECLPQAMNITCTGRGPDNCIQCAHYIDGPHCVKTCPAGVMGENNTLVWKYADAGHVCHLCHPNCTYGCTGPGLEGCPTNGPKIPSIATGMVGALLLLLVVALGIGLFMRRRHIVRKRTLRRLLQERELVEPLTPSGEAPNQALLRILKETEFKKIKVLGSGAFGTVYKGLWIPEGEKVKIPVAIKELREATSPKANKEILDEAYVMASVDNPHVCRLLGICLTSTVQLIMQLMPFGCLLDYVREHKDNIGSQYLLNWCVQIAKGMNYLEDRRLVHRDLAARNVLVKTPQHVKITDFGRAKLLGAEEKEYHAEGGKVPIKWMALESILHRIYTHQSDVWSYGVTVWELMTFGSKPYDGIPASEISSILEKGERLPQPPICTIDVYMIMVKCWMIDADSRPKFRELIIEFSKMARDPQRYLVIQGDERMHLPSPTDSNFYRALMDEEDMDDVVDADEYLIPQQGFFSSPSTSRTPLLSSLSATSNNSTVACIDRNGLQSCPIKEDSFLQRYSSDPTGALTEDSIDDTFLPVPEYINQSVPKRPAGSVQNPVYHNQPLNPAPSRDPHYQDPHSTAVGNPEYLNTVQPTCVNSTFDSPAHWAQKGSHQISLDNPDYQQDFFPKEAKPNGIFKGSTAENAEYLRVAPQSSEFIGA

[4] = target: T4, human Her2 exon 20 insertion mutation YVMA (Homo sapiens, UniProt P04626, INS775YVMA); experiment: Her2 Exon 20 YVMA insertion cellular phosphorylation inhibition (MSD p-Her2 Y1248/total Her2); conditions: Her2 YVMAins cells, 4 h compound;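 also: lentivirally transduced NIH-3T3 cells in 1% FBS medium, electrochemiluminescent MSD read-out, graded compound concentrations at 37 °C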
T4 construct: expressed in transfected cells; host or cells: NIH-3T3, lentiviral transduction, puromycin selection
Procedure: The resulting cell line expressed phosphorylated Her2 protein and its proliferation depended on the mutation gene, which could be used for in vitro PD and anti-proliferation assays.
One day before the test, WT or mutant cells were seeded in 96 well plates at appropriate concentrations with corresponding growth media supplemented with 1% FBS, and incubated overnight. The next day, tested compounds at a series of concentrations were added into each individual well of the plates, and the plates were incubated for 4 h at 37° C. with 5% CO2.
The EGFR (Y1068) phosphorylation level (activity) of cells in each well were then measured with MSD kit named “MULTI-SPOT®96 4-Spot HB Prototype EGFR Triplex [sequence]: pEGFR(Tyr1068),pEGFR(Tyr1173), Total EGFR” according to the manufacturer’s instruction (MESO SCALE DISCOVERY, Cat# N45ZB-1). The assay is an electrochemiluminescent method for determining both phosphorylated and total EGFR of cells with an MSD SECTOR® Imager and the ratio of p-EGFR/total EGFR can be generated by the machine. The Her2 (Y1248) phosphorylation level (activity) of cells in each well were measured with MSD Kit named “Phospho-ErbB2 (Tyr1248) Assay Whole Cell Lysate Kit” according to the manufacturer’s instruction (MESO SCALE DISCOVERY, Cat# K151CLD-3). The assay is an electrochemiluminescent method (MESO SCALE DISCOVERY) for determining both phosphorylated and total Her2 of cells with an MSD SECTOR® Imager and then the ratio of p-Her2/total Her2 can be generated by the machine.

[5] = target: T5, WT EGFR (Homo sapiens, UniProt P00533); experiment: WT EGFR cellular phosphorylation inhibition in A-431 (hEGF stimulated, MSD); conditions: A431 cells, 4 h compound, then 100 ng/ml hEGF 10 min;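 also: electrochemiluminescence read-out of EGFR Tyr1068 phosphorylation expressed as ratio to total EGFR, cells kept in medium with 1% FBS, compounds tested as a concentration series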
T5 construct: host or cells: A-431
T5 sequence (P00533 25-1210): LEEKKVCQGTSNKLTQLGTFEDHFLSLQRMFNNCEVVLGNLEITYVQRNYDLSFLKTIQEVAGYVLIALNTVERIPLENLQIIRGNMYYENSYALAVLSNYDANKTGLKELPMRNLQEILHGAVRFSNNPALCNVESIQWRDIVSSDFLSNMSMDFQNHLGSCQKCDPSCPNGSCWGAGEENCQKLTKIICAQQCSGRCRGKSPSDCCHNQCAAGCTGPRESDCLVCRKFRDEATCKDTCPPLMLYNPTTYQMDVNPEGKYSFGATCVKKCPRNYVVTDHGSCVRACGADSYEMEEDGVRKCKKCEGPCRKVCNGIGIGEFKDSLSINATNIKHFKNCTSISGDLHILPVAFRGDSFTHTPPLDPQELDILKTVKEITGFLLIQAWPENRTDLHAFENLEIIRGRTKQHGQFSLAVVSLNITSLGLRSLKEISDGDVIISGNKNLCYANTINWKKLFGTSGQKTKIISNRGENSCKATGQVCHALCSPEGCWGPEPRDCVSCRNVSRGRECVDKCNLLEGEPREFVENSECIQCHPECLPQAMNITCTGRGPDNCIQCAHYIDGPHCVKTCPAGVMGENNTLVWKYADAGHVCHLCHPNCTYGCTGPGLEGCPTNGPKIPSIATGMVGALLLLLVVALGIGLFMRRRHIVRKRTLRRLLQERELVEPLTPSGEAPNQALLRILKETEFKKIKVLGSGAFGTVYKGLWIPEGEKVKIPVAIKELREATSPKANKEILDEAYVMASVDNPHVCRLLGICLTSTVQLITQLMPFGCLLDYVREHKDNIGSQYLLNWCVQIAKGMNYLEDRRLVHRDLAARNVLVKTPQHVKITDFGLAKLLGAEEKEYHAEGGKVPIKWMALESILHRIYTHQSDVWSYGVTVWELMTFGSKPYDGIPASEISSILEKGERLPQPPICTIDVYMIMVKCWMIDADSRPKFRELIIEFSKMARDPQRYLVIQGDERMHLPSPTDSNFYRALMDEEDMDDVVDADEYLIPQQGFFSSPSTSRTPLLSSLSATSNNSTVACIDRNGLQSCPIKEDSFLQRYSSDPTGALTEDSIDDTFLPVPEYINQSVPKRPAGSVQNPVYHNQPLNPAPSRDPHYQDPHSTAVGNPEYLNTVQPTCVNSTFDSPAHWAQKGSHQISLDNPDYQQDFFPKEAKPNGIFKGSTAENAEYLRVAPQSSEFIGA

[6] = tested on: Ba/F3 EGFR NPH ins cells; experiment: Cell proliferation, Ba/F3 EGFR NPH ins (CellTiter-Glo, 72 h); conditions: Ba/F3 EGFR, 72 h;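 also: IL3-independent cells carrying constitutively phosphorylated EGFR, compound dilution series, viable cells quantified by ATP luminescence, growth relative to DMSO wells after subtracting pre-dosing (day 0) baseline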
[7] = tested on: Ba/F3 EGFR ASV ins cells; experiment: Cell proliferation, Ba/F3 EGFR ASV ins (CellTiter-Glo, 72 h); conditions: Ba/F3 EGFR, 72 h;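 also: IL3-independent Ba/F3 cells transduced with EGFR V769_D770insASV, cellular ATP luminescence after compound exposure, growth relative to DMSO control with the day-0 baseline reading subtracted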
[8] = tested on: NCI-H1975 EGFR L858R/T790M cells; experiment: Cell proliferation, NCI-H1975 EGFR L858R/T790M (CellTiter-Glo, 72 h); conditions: Homo sapiens, NCI-H1975, 72 h;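 also: viable cells quantified by luciferase-based ATP luminescence, proliferation expressed relative to DMSO-treated wells (100%) after subtracting a parallel plate read at the time of dosing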
[9] = tested on: Her2 exon 20 insertion YVMA transduced NIH-3T3 cell line; experiment: Cell proliferation, Her2 YVMAins NIH-3T3 (CellTiter-Glo, 72 h); conditions: Mus musculus, NIH3T3, 72 h, Her2 YVMAins cells, 72 h proliferation; read-out: Her2 Exon 20 YVMA insertion GI50;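 also: viable cells quantified by ATP luminescence, growth over a day-zero baseline plate expressed as percent of DMSO control growth, compound dilution series in 10% FBS medium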
[10] = tested on: WT EGFR cell line A-431; experiment: Cell proliferation, WT EGFR A431 (CellTiter-Glo, 72 h); conditions: Homo sapiens, A-431, 72 h;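 also: proliferation from a luminescent ATP viability signal, expressed as 100 × (treated minus time-zero plate) over (DMSO control minus time-zero plate), cells grown with 10% FBS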
Procedure: WT or mutant cells were seeded in 384 well plates at appropriate concentrations with corresponding growth media supplemented with 10% FBS, for each experiment, identical plates were prepared in duplicates, and the plates were incubated overnight. On the next day, one of each duplicated plates was dosed with tested compounds at a series of concentrations, and another one of the duplicated plate was analysied for G0 value. The dosed plates were incubate for another 72 h at 37° C. with 5% CO2 and the number of viable cells in each well of the G0 plates or the dosed plates were measured by CellTiter-Glo® Luminescent Cell Viability Assay (Promega). This assay is a luminescent method for determining the number viable cells through measurement of cellular ATP concentration by detection of luciferase activity. Detection reagents (15 µl) was dispensed into per well, and the plates were incubate for 30 min at room temperature. Then, the luminescence in each well was measured using the Envision plate reader (PerkinElmer). The percentage of proliferation was calculated based on the formula: %Proliferation= 100 × (G3 value of sample well-Go value)/(G3 value of DMSO control-Go value).

[11] = Ba/F3 EGFR NPH ins, 72 h proliferation, read-out: EGFR Exon20 NPH insertion GI50
[12] = Ba/F3 EGFR ASV ins, 72 h proliferation, read-out: EGFR Exon20 ASV insertion GI50
[13] = NCI-H1975, 72 h proliferation, read-out: EGFR L858R and T790M mutation GI50
[14] = A431, 72 h proliferation, read-out: EGFR WT A431 GI50

Row | Compound | IC50 [1] | IC50 [2] | IC50 [3] | IC50 [4] | IC50 [5] | GI50 [6, 11] | GI50 [7, 12] | GI50 [8, 13] | GI50 [9] | GI50 [10, 14] | GI50 ([6]; read-out: EGFR Exon20 NPH insertion GI50 (nM)) | GI50 ([7]; read-out: EGFR Exon20 ASV insertion GI50 (nM)) | GI50 ([8]; read-out: EGFR L858R and T790M mutation GI50 (nM)) | GI50 ([10]; read-out: EGFR WT A431 GI50 (nM))
1 | C=CC(=O)Nc1cc(Nc2ncnc(Nc3cc(Cl)c(F)cc3C(C)(C)O)n2)c(OC)cc1N1CCC[C@H]1CN(C)C [Compound 65, (S)-N-(5-(4-(5-chloro-4-fluoro-2-(2-hydroxypropan-2-yl)phenylamino)-1,3,5-triazin-2-ylamino)-2-(2-((dimethylamino)methyl)pyrrolidin-1-yl)-4-methoxyphenyl)acrylamide] | 315 nM | 358 nM | 7.9 nM | 188 nM | 479 nM | 382 nM | 484 nM | 29.6 nM | 776 nM | 234 nM | – | – | – | –
2 | C=CC(=O)Nc1cc(Nc2ncnc(Nc3cc(F)c(F)cc3C(C)(C)O)n2)c(OC)cc1N1CC[C@H]2CN(C)C[C@H]21 [Compound 25, N-(5-(4-(4,5-difluoro-2-(2-hydroxypropan-2-yl)phenylamino)-1,3,5-triazin-2-ylamino)-4-methoxy-2-((3aS,6aS)-5-methylhexahydropyrrolo[3,4-b]pyrrol-1(2H)-yl)phenyl) acrylamide] | 376 nM | 388 nM | 7.9 nM | 534 nM | 838 nM | 618 nM | 552 nM | 165 nM | 989 nM | 329 nM | – | – | – | –
3 | C=CC(=O)Nc1cc(Nc2ncnc(Nc3ccccc3C(C)(C)O)n2)c(OC)cc1N1CCC[C@@H](N(C)C)C1 [Compound 1, (R)-N-(2-(3-(dimethylamino)piperidin-1-yl)-5-(4-(2-(2-hydroxypropan-2-yl)phenylamino)-1,3,5-triazin-2-ylamino)-4-methoxyphenyl)acrylamide] | 423 nM | 386 nM | 5.2 nM | 318 nM | 599 nM | 999 nM | 926 nM | 282 nM | 905 nM | 334 nM | – | – | – | –
4 | C=CC(=O)Nc1cc(Nc2ncnc(Nc3cc(Cl)c(F)cc3C(C)(C)O)n2)c(OC)cc1N(C)CCN1CCC[C@@H]1C [Compound 42, (S)-N-(5-(4-(5-chloro-4-fluoro-2-(2-hydroxypropan-2-yl)phenylamino)-1,3,5-triazin-2-ylamino)-4-methoxy-2-(methyl(2-(2-methylpyrrolidin-1-yl)ethyl)amino)phenyl) acrylamide] | 35.8 nM | 63.3 nM | 1.8 nM | 33.9 nM | 133 nM | 137 nM | 144 nM | 8.5 nM | 195 nM | 53.2 nM | – | – | – | –
5 | C=CC(=O)Nc1cc(Nc2ncnc(Nc3cc(F)c(F)cc3C(C)(O)CC)n2)c(OC)cc1N1CC[C@H]2CN(C)C[C@H]21 (stereo partly drawn) [Compound 50, N-(5-(4-(4,5-difluoro-2-(2-hydroxybutan-2-yl)phenylamino)-1,3,5-triazin-2-ylamino)-4-methoxy-2-((3 aS, 6aS)-5-methylhexahydropyrrolo[3,4-b]pyrrol-1 (2H)-yl)phenyl) acrylamide] | 2630 nM | 308 nM | 19 nM | 382 nM | 1110 nM | 802 nM | 449 nM | 30 nM | 1080 nM | 277 nM | – | – | – | –
6 | C=CC(=O)Nc1cc(Nc2nccc(Nc3cc(Cl)c(F)cc3C(C)(C)O)n2)c(OC)cc1N1C[C@H](N(C)C)C2(CC2)C1 [Compound 83, (R)-N-(5-(4-(5-chloro-4-fluoro-2-(2-hydroxypropan-2-yl)phenylamino)pyrimidin-2-ylamino)-2-(7-(dimethylamino)-5-azaspiro[2.4]heptan-5-yl)-4-methoxyphenyl) acrylamide formic acid salt] | 239 nM | 154 nM | 5 nM | 87.6 nM | 1010 nM | – | – | – | 678 nM | – | 300 nM | 340 nM | 38.9 nM | 252 nM
